The values that follow are results of earlier work, collected in patent publication US20230233522A1, “COMPOSITIONS AND METHODS FOR TREATING EPILEPSY, SEIZURES AND OTHER CONDITIONS” (TULEX PHARMACEUTICALS INC., priority 2019, published 2023).

Turning to `CC1(C)O[C@@H]2[C@@H](CO[C@@]3(COS(N)(=O)=O)OC(C)(C)O[C@@H]23)O1` [Topiramate, 2,3:4,5-Di-O-isopropylidine-β-D-fructopyranose sulfamate], the solubility in water entry was “about 9.8 mg/ml”.
